Results as given in patent US10174016B2 (BAYER AKTIENGESELLSCHAFT, priority 2014, dated 2019).
Read-outs that look alike come from different tables or passages of the source.

Legend:
[1] = target: human P2X2/3 receptor (Homo sapiens (Human), UniProt P56373+Q9UBL9); assay: Intracellular calcium measurement (FLIPR, Fluo-4) of antagonist activity at human P2X2/3 receptors; type: cell-based; settings: human P2X2/3, FLIPR calcium assay, agonist α,β-Me-ATP; read-out: hP2X2/3 IC50
Protocol: (§1) Intracellular Calcium Measurement to Assess Antagonist Activity at Human P2X3 and Human P2X2/3 Receptors
(§2) A fluorescent imaging plate reader (FLEX/FLIPR station; Molecular Devices) was used to monitor intracellular calcium levels using the calcium-chelating dye Fluo-4 (Molecular Probes). […] Cells expressing purinergic receptors P2X3 (human) or P2X2/3 (human) were plated at a density of 15,000 cells/well in collagen-coated 384-well plates approximately 20 hours before beginning the assay. […] The test compound was added in a volume of 5 μl and allowed to incubate for 30 min at 37° C. The final assay DMSO concentration is 1%. The agonist, α,β-Me-ATP, was added in a volume of 20 μl at a concentration representing the EC80 value. The fluorescence was measured for an interval of 90 sec at 2 sec intervals and analyzed based on the increase in peak relative fluorescence units (RFU) compared to the basal fluorescence. Peak fluorescence was used to determine the response to agonist obtained at each concentration of test compound by the following equation: % Response=100*(RFU(test compound)−RFU(control)/RFU(DMSO)−RFU(control))
(§3) The Examples were tested in triplicates per plate and mean values were plotted in Excel XLFit to determine IC50 values at the human P2X3 and human P2X2/3 receptors, percentage of maximal inhibition and the Hill coefficients.

[2] = target: human P2X3 receptor (Homo sapiens (Human), UniProt P56373); assay: Intracellular calcium measurement (FLIPR, Fluo-4) of antagonist activity at human P2X3 receptors; type: cell-based; settings: read-out: hP2X3 IC50
Protocol: as §1, §2, §3

[3] = human P2X3, FLIPR calcium assay, agonist α,β-Me-ATP

human P2X3 receptor, sequence (P56373 whole entry): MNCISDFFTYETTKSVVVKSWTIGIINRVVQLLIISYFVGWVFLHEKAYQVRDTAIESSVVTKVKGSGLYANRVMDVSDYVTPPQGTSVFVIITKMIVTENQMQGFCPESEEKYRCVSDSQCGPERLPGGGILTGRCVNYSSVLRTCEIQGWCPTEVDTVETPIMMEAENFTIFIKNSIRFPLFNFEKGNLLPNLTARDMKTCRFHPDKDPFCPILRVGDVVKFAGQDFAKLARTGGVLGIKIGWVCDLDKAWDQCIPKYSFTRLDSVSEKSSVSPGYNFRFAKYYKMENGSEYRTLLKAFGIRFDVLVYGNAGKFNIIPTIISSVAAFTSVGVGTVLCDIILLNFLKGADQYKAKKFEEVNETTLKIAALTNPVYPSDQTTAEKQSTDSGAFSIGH
human P2X2/3 receptor, sequence (P56373 whole entry): as above
human P2X2/3 receptor, sequence (Q9UBL9 whole entry): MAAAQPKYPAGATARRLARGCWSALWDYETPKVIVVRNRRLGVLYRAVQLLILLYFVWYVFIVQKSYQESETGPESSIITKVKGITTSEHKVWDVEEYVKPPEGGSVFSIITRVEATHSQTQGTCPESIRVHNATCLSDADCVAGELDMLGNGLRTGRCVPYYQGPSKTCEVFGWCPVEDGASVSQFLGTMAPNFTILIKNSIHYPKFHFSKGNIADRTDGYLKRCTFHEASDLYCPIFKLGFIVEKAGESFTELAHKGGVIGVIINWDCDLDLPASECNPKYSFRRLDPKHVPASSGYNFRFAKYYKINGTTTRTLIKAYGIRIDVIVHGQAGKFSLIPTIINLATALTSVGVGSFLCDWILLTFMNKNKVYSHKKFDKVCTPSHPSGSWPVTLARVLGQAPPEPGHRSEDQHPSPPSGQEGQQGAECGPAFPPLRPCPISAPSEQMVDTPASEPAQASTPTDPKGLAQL

SMILES | IC50 [1] [nM] | IC50 [2, 3] [nM] | IC50 [2] [nM]
CCc1cnc(-c2cc(OC[C@@H]3CCOC3)cc(C(=O)N[C@H](C)c3cnc(C(F)(F)F)nc3)c2)s1 [Example 260, 3-(5-ethyl-1,3-thiazol-2-yl)-5-[(3R)-tetrahydrofuran-3-ylmethoxy]-N-{(1R)-1-[2-(trifluoromethyl)pyrimidin-5-yl]ethyl}benzamide] | 14 | 2 | 
Cc1cnc(-c2cc(OCC(C)(C)O)cc(C(=O)N[C@H](C)c3cnc(C(F)(F)F)nc3)c2)s1 [Example 328, 3-(2-hydroxy-2-methylpropoxy)-5-(5-methyl-1,3-thiazol-2-yl)-N-{(1R)-1-[2-(trifluoromethyl)pyrimidin-5-yl]ethyl}benzamide] | 274 |  | 12
Cc1cnc(-c2cc(OC3CC4CC3CN4C)cc(C(=O)N[C@H](C)c3cnc(C(F)(F)F)nc3)c2)s1 (stereo partly drawn) [Example 209, 3-{[2-methyl-2-azabicyclo[2.2.1]hept-5-yl]oxy}-5-(5-methyl-1,3-thiazol-2-yl)-N-{(1R)-1-[2-(trifluoromethyl)pyrimidin-5-yl]ethyl}benzamide] | 1470 | 30 | 
Cc1cnc(CNC(=O)c2cc(OCC3CC3)cc(-c3ncc(C)s3)c2)cn1 [Example 3, 3-(Cyclopropylmethoxy)-N-[(5-methylpyrazin-2-yl)methyl]-5-(5-methyl-1,3-thiazol-2-yl)benzamide] | 1110 | 26 | 
Cc1cnc(-c2cc(OC3CCN(CC(F)(F)F)CC3)cc(C(=O)N[C@H](C)c3ccc(C(F)(F)F)nn3)c2)s1 [Example 312, 3-(5-methyl-1,3-thiazol-2-yl)-5-{[1-(2,2,2-trifluoroethyl)piperidin-4-yl]oxy}-N-{(1R)-1-[6-(trifluoromethyl)pyridazin-3-yl]ethyl}benzamide] | 83 | 9 | 
CC(C)c1cnc(-c2cc(OC[C@H]3CCOC3)cc(C(=O)N[C@H](C)c3cnc(C(F)(F)F)nc3)c2)s1 [Example 281, 3-[5-(propan-2-yl)-1,3-thiazol-2-yl]-5-[(3S)-tetrahydrofuran-3-ylmethoxy]-N-{(1R)-1-[2-(trifluoromethyl)pyrimidin-5-yl]ethyl}benzamide] | 198 |  | 26

Continued by falling IC50 [1], values first:

IC50 [1] [nM] | IC50 [2, 3] [nM] | SMILES | IC50 [2] [nM]
317 | 45 | Cc1ccc([C@@H](C)NC(=O)c2cc(OC[C@@H]3CCOC3)cc(-c3ncc(C4CCC4)s3)c2)nn1 [Example 261, 3-(5-cyclobutyl-1,3-thiazol-2-yl)-N-[(1R)-1-(6-methylpyridazin-3-yl)ethyl]-5-[(3R)-tetrahydrofuran-3-ylmethoxy]benzamide] | 
185 | 7 | Cc1ncc([C@@H](C)NC(=O)c2cc(OCC3CC3)cc(-c3ncc(C)s3)c2)cn1 [Example 10, 3-(Cyclopropylmethoxy)-N-[(1R)-1-(2-methylpyrimidin-5-yl)ethyl]-5-(5-methyl-1,3-thiazol-2-yl)benzamide] | 
88 | 8 | Cc1cnc(-c2cc(O[C@@H]3CCOC3)cc(C(=O)NC(C)c3ncc(Cl)cc3F)c2)s1 (stereo partly drawn) [Example 14, N-[1-(5-chloro-3-fluoropyridin-2-yl)ethyl]-3-(5-methyl-1,3-thiazol-2-yl)-5-[(3R)-tetrahydrofuran-3-yloxy]benzamide] | 
41 | 16 | Cc1cc(Oc2cc(C(=O)N[C@H](C)c3cnc(C)nc3)cc(-c3ncc(C)s3)c2)ccn1 [Example 106, 3-[(2-methylpyridin-4-yl)oxy]-N-[(1R)-1-(2-methylpyrimidin-5-yl)ethyl]-5-(5-methyl-1,3-thiazol-2-yl)benzamide] | 
14 | 2 | Cc1cc(Oc2cc(C(=O)N[C@H](C)c3cnc(C(F)(F)F)nc3)cc(-c3ncc(C)s3)c2)ccn1 [Example 103, 3-[(2-Methylpyridin-4-yl)oxy]-5-(5-methyl-1,3-thiazol-2-yl)-N-{(1R)-1-[2-(trifluoromethyl)pyrimidin-5-yl]ethyl}benzamide] | 
